Test results as given in patent US4495186A, “Organometal complexes of N-cyclohexyl-piperazino acetamides or propionamides, preparation and use thereof as antiulcer-antisecretive-buffering drugs” (Camillo Corvi S.p.A., priority 1982, dated 1985).

Key:
[1] = from U.S. Pat. No. 4,123,530; cited from earlier work
[2] = test system: From indomethacin experimental ulcer; experiment: antiulcer activity, ulcer from indomethacin; format: in vivo; conditions: rat, os
Excerpt: (§1) The antiulcer activity has been tested on the rat for different types of experimental ulcer. The obtained therefrom is in Table 2.

[3] = test system: Immobilization experimental ulcer; experiment: antiulcer activity, immobilization ulcer; format: in vivo; conditions: rat, os
Excerpt: as §1

antisecretive activity = format: in vivo; conditions: rat, os
Fast experimental ulcer = experiment: antiulcer activity, fast ulcer; format: in vivo; conditions: rat, os
Excerpt: as §1

[4] = test system: Phenylbutazone + hystamine experimental ulcer; experiment: antiulcer activity, phenylbutazone + hystamine ulcer; format: in vivo; conditions: rat, os
Excerpt: as §1

[5] = test system: Reserpine experimental ulcer; experiment: antiulcer activity, reserpine ulcer; format: in vivo; conditions: rat, os
Excerpt: as §1

rat = experiment: acute toxicity per os, rat; format: in vivo
Excerpt: (§2) The acute toxicity of the complex salt of dihydroxy-aluminum-gluconate of N-cyclohexyl-piperazino acetamide is checked by the usual pharmacotoxicologic testing on the rat and mouse per os, the results of which are given in the following table.

Shay experimental ulcer = experiment: antiulcer activity, Shay ulcer; format: in vivo; conditions: rat, i.d.
Excerpt: as §1

[6] = test system: Duodenal from cystamine experimental ulcer; experiment: antiulcer activity, duodenal ulcer from cystamine; format: in vivo; conditions: rat, i.d.
Excerpt: as §1

[7] = buffering effect, HCl titration in vitro; format: physicochemical; conditions: 4.6 g sample in 400 ml 0.015 N HCl, 37° C., 0.1 N HCl at 1 ml/minute; minimum requirement
Method: Buffering effect: to 4.6 g of the sample, in a 1000 ml beaker, 400 ml of 0.015 N HCl are added, while keeping the temperature at 37° C. (thermostat). The pH is measured after 30 minutes, while controlling that it be maintained within 4.8.div.5.0. Then, by means of a burette, 0.1 N HCl is introduced at a rate of 1 ml/minute, to achieve a pH of 3.0. 165 ml of 0.1N HCl must be consumed at the very least.

mouse = experiment: acute toxicity per os, mouse; format: in vivo; conditions: fiduciary limits (6646.4-5862.2)
Excerpt: as §2

gastric hyperacidity = experiment: buffering activity (neutralizing action for gastric hyperacidity); format: in vivo; conditions: rat, os

CC1CCC(NC(=O)CN2CCNCC2)CC1 (stereo not drawn) [N-4-methyl-cyclohexyl-1-piperazinylacetamide]
antisecretive and antiulcer activity [1]: considerable

O=C(CN1CCNCC1)NC1CCCCC1 [N-cyclohexyl-1-piperaziniylacetamide]
antisecretive and antiulcer activity [1]: considerable

Dihydroxy-aluminate-gluconate of N- cyclohexyl-1-piperazino-acetamide
ED50 (antiulcer) [2]: 420 mg/kg | ED50 (antiulcer) [3]: 420 mg/kg | ED50 (antisecretive activity) (antisecretive activity): 330 mg/kg | ED50 (antiulcer) (Fast experimental ulcer): 350 mg/kg | ED50 (antiulcer) [4]: 150 mg/kg | ED50 (antiulcer) [5]: 480 mg/kg | toxicity (rat; rat and mouse per os, overall statement): very low | LD50 (rat; rat, os, fiduciary limits (8447.4-5264.6)): 6668.4 mg/kg | ED50 (antiulcer) (Shay experimental ulcer): 360 mg/kg | ED50 (antiulcer) [6]: 270 mg/kg | 0.1N HCl consumed to achieve a pH of 3.0 [7]: ≥ 165 ml | LD50 (mouse): 6241.9 mg/kg | ED50 (buffering activity) (gastric hyperacidity): 156 mg/kg
